Laboratory results reported in patent US20090181896A1, “Use of Natriuretic Peptide Receptor Antagonists to Treat Ocular, Otic and Nasal Edemetous Conditions” (ALCON RESEARCH, LTD., priority 2006, published 2009).

Assays:
Format in all cases: cell-based
[1] = biological target: T1, type-B natriuretic peptide receptor in immortalized human corneal epithelial (CEPI-17-CL4) cells (Homo sapiens, UniProt P20594); assay: Antagonism of CNP fragment-induced cGMP production in immortalized human corneal epithelial (CEPI-17-CL4) cells; settings: mean ± SEM
T1 construct: primary human corneal epithelial cells (P-CEPI) were isolated from human donor eyes; endogenous in cells; host or cells: primary human corneal epithelial cells (P-CEPI) and SV40-immortalized human corneal epithelial cells (CEPI-17-CL4)
T1 sequence (P20594 23-1047): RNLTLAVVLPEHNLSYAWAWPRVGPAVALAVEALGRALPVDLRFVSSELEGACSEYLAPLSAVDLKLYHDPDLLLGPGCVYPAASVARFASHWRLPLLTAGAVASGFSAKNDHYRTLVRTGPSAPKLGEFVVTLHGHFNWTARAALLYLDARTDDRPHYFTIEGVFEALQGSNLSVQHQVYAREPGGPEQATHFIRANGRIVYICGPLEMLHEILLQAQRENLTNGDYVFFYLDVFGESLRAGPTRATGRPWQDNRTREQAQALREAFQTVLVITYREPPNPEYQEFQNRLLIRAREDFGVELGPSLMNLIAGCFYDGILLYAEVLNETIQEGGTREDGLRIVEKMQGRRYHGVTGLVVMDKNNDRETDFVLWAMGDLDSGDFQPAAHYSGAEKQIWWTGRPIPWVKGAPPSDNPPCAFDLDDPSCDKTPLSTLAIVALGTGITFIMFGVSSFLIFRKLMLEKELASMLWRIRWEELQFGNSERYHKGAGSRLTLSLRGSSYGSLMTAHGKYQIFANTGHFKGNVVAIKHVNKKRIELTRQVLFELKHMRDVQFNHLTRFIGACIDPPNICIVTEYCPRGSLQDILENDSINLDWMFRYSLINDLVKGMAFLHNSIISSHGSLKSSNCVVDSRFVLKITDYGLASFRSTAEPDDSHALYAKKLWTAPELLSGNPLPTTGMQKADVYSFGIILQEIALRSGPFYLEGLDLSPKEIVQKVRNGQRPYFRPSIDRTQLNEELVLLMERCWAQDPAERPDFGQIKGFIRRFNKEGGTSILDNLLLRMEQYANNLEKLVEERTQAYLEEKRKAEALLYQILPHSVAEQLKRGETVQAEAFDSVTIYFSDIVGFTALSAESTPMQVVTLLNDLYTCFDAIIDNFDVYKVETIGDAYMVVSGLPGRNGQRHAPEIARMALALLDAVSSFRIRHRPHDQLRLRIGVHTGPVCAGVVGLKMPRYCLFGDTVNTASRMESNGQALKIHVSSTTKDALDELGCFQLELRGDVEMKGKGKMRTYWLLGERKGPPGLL

[2] = biological target: T2, Type-A natriuretic peptide receptor in human conjunctival epithelial cells (Chang cells) (Homo sapiens, UniProt P16066); assay: Natriuretic peptide-stimulated cGMP production (guanylyl cyclase activity, EIA) in human conjunctival epithelial cells (Chang cells); settings: for Agonist character in words: cGMP production; for Intrinsic Activity (Emax; % Max. Response): cGMP production via type-A receptor
T2 construct: the most relevant cells are Chang cells (Clone 1-5C-4 Wong-Kilbourne Derivative); These cells were obtained from ATCC; host or cells: Chang cells (Clone 1-5C-4 Wong-Kilbourne Derivative), human conjunctival epithelial cells
T2 sequence (P16066 33-1061): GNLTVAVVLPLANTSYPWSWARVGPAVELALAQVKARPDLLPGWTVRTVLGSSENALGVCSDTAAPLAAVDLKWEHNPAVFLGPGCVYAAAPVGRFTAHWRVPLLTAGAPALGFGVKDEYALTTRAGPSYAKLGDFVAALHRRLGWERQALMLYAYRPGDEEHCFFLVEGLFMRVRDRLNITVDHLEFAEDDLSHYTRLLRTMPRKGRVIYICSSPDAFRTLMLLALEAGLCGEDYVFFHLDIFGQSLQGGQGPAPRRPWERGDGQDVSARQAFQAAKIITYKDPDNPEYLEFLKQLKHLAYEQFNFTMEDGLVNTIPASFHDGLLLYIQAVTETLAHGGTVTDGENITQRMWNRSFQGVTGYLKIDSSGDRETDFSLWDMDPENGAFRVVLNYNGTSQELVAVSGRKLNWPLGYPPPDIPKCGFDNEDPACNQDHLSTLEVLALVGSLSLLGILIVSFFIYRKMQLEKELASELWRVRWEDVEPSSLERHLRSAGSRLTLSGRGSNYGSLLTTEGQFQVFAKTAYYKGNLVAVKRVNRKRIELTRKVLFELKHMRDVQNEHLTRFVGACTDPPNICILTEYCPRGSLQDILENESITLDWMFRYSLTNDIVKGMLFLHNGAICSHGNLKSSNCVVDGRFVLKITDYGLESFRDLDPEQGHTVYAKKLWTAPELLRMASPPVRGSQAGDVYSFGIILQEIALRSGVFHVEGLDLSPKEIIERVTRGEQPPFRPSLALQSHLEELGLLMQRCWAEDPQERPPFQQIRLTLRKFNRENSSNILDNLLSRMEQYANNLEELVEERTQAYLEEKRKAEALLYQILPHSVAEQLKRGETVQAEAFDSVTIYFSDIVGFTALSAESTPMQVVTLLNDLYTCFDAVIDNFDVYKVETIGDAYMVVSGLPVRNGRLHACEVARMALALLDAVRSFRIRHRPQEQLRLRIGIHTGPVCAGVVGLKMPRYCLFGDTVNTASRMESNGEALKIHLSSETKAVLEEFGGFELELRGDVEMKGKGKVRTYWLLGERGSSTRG
Method: These cells were obtained from ATCC (Manassas, Va.) and cultured in medium 199, containing 10% fetal bovine serum and […] Gentamicin. (obtained from Gibco/Invitrogen; Carlsbad, Calif.).
Cells were seeded in 48-wells culture plates. On reaching confluence, the cells were rinsed twice with 0.5 ml Dulbeco's modified Eagle's medium (DMEM)/F-12. […] Natriuretic peptides (American Peptide Co. Inc., Sunnyvale, Calif.; Peninsula Labs. San Carlos, Calif.) were then added at the end of this period and the reaction was allowed to proceed for another 15 minutes at 23° C. After aspiration of the reaction medium, ice cold 0.1 M acetic acid ([…], pH 3.5) was added for the termination of cGMP synthesis and cell lysis. Finally, ice-cold 0.1 M sodium acetate ([…], pH 11.5-12.0) was added to neutralize the samples before analysis of cGMP by an enzyme immunoassay (EIA) kit. cGMP production in the cells was measured using the EIA kit purchased from Amersham Pharmacia Biotech (Piscataway, N.J.). This assay was conducted according to the package insert in an automated manner using a robotic workstation (Biomek 2000; Beckman Instrument, Fullerton, Calif.) (Sharif et al. Characterization of the ocular anti-allergic and anti-histaminic effects of Olopatadine (AL-4943A), a novel drug for treating ocular allergic diseases. J. Pharmacology & Experimental Therapeutics 278, 1251-1260, 1996; Crider et al. Pharmacological characterization of serotonin receptor (5HT7) stimulating cAMP production in human corneal epithelial cells. Invest. Ophthalmol. Vis. Sci. 44: 4837-4844, 2003). Data were analyzed using a non-linear, iterative curve-fitting computer program (IDBS, Surrey, UK) and Origin software package (Microcal Software, Inc., Northampton, Mass.) (Sharif et al. 1996; Crider et al. 2003).

[3] = biological target: T3, Type-B natriuretic peptide receptor in human corneal epithelial cells (Homo sapiens, UniProt P20594); assay: Natriuretic peptide-stimulated cGMP production (guanylyl cyclase activity, EIA) in human corneal epithelial cells; settings: cGMP production via type-B receptor
T3 construct: primary human corneal epithelial cells (P-CEPI) were isolated from human donor eyes; endogenous in cells; host or cells: primary human corneal epithelial cells (P-CEPI) and SV40-immortalized human corneal epithelial cells (CEPI-17-CL4)
T3 sequence (P20594 23-1047): T1 sequence (P20594 23-1047)
Method: Thus, primary human corneal epithelial cells (P-CEPI) were isolated from human donor eyes ≦24 hr postmortem and were cultured in EpiLife medium (Cascade Biologics, Portland, Oreg.) containing 1% human corneal growth supplement, 100 u/ml penicillin G, 100 mg/ml streptomycin sulfate. Culture plates were coated with fibronectin to help the cells adhere to the bottom of the plates. […]
In brief, compounds of interest were diluted in ethanol so that the final ethanol concentration was 1%, a concentration well tolerated by the cells. […] Finally, ice-cold 0.1 M sodium acetate (220 ml, pH 11.5-12.0) was added to neutralize the samples before analysis of cGMP by an enzyme immunoassay (EIA) kit. cGMP production in the cells was measured using the EIA kit purchased from Amersham Pharmacia Biotech (Piscataway, N.J.). […] Data were analyzed using a non-linear, iterative curve-fitting computer program (IDBS, Surrey, UK) and Origin software package (Microcal Software, Inc., Northampton, Mass.) (Sharif et al. 1996; Crider et al. 2003). […]

Compound: O=C1Nc2ccccc2C1=O [isatin]
- Ki [1]: 18 ± 4 µM

Compound: C-type natriuretic peptide [CNP]
- Agonist character in words [2]: weak partial agonist
- Intrinsic Activity (Emax; % Max. Response) [2]: 26%
- Intrinsic Activity (Emax; % Max. Response) [3]: 100%

Compound: brain natriuretic peptide [BNP]
- Agonist character in words [2]: potent full agonists
- Intrinsic Activity (Emax; % Max. Response) [2]: 94%
- Intrinsic Activity (Emax; % Max. Response) [3]: 50.2%
